pEC50: −log10 of the molar value. Where two headings read alike, the source gives them in different places.
Key:
Type in all cases: cell-based
[1] = tested on: HEK293 cells overexpressing APOL1 G2; assay: APOL1 G2 HEK293 cell rescue assay (reversal of cell death caused by overexpression of APOL1); details: geometric mean of at least 2 assay runs, † = single assay run
Method in brief: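 EC50 is the half-maximal effective concentration for reversing cell death driven by APOL1 G2 overexpression in HEK293 cells. Reported as geometric mean of at least 2 runs on separate days, each run averaging duplicate wells per plate; some values from a single run.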

[2] = tested on: HEK293 clonal cell line overexpressing APOL1 G1; assay: APOL1 G1 HEK293 cell rescue assay (Example B3); details: geometric mean of at least 2 runs, † = single run, ¥ = concentration at 50% rescue estimated (no sigmoidal curve)
Method in brief: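 HEK293 clonal line overexpressing APOL1 G1; EC50 is half-maximal reversal of APOL1-induced cell death. Values are the geometric mean of ≥2 runs on separate days, each run the average of duplicate wells. Where no sigmoidal curve could be fitted, the concentration giving 50% rescue was estimated.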

[3] = tested on: Trypanosoma brucei Lister 427 VSG221 with APOL1 G1 recombinant protein; assay: APOL1 G1 trypanosome cell rescue assay (Example B5); details: geometric mean of at least 2 assay runs, † = single assay run
Description: (§1) APOL1 G0/G1/G2 viability assay for measurement of cytotoxicity reversal by compound in trypanosomes (APOL1 G0/G1/G2 trypanosome cell rescue assay).
(§2) APOL1 protein expression and purification. The mature from of APOL1 proteins, residues 28-398, were expressed from a pET28a vector with an N-terminal His-tag and TEV cleavage site. Proteins were expressed in Escherichia coli BL21-CodonPlus (DE3)-RIPL cells. Liter cultures of terrific broth were grown at 37° C. until an OD600 of ˜0.8 was reached and then induced with isopropyl β-D-1-thiogalactopyranoside (IPTG; final concentration of 500 μM). Afterwards, cultures were grown for 3 hours at 37° C. For protein purification, cell pellets were resuspended in lysis buffer (50 mM Tris, pH 8.5, 5 mM EDTA, 0.5 mM DTT, 0.5 mM PMSF) supplemented with a cocktail of protease inhibitors. Cells were lysed by sonication, centrifuged, and the resulting pellet was collected. The homogenized pellet was resuspended in wash buffer (50 mM Tris, pH 8.5, 0.5 M NaCl, 5 mM EDTA, 0.5 mM DTT, 0.5 mM PMSF, protease inhibitor cocktail) and collected by centrifugation. Inclusion body dissolution was then conducted as previously reported (PNAS 112(9) (2015) 2894-2899; www.pnas.org/cgi/doi/10.1073/pnas.1421953112; herein incorporated by reference in its entirety). The solubilized APOL1 protein was applied to a nickel column (HisTrap, GE Life Sciences) preequilibrated in buffer A (50 mM Tris, pH 8.5, 0.15 M NaCl, 1% zwittergent 3-14, protease inhibitor cocktail). The resin was washed with buffer B (50 mM Tris, pH 8.5, 0.15 M NaCl, 0.1% DDM) and TEV cleavage was conducted on column overnight. Afterwards, the column was washed with buffer B, followed by His-washing buffer (50 mM Tris, pH 8.5, 0.15 M NaCl, 0.1% DDM, 10 mM imidazole). The protein was then removed from the resin using His-elution buffer (50 mM Tris, pH 8.5, 0.15 M NaCl, 0.1% DDM, 250 mM imidazole). The sample was further purified by size exclusion chromatography using a Superdex 200 Increase column (GE Life Sciences) in 50 mM Tris, pH 8.5, 0.15 M NaCl, and 0.1% DDM buffer. All APOL1 proteins (G0, G1, and G2) were generated at Viva Biotech (Shanghai) Ltd.
(§3) Modified HMI-9 media preparation (https://tryps.rockefeller.edu/trypsru2_culture_media_preparation.html; herein incorporated by reference in its entirety). Trypanosomes were cultured in modified HMI-9 media consisting of IMDM (ThermoFisher, 12440053), 10% heat-inactivated FBS (Gibco, 10082-147), 10% Serum Plus (Sigma-Aldrich, 14008C), 1×HMI-9 supplement stock, and 1% hypoxanthine stock. The 10×HMI-9 supplement stock was made by dissolving 280 mg bathocuproine disulfonic acid (Sigma-Aldrich, 146625), 1820 mg cysteine (add after bathocuproine) (Sigma-Aldrich, 30089), 1100 mg pyruvic acid (Sigma-Aldrich, 107360), 100 mg uracil (Sigma-Aldrich, U0750), 100 mg cytosine (Sigma-Aldrich, C3506) and 140 μL 2-mercaptoethanol (Sigma-Aldrich, M3148) in 1000 mL of water. The resulting solution was aliquoted and stored at −20° C. The hypoxanthine stock was made by dissolving 4 g of NaOH into 1000 mL of water. Afterwards, 13.6 g hypoxanthine (Sigma-Aldrich, H9377) was added to this mixture. The resulting solution was aliquoted and stored at −20° C.
(§4) Assay Setup. Trypanosoma brucei Lister 427 VSG221 (ATCC, PRA-382) cells were cultured in modified HMI-9 media. All experiments were performed in 384-well, white, solid bottom, tissue culture treated plates (Greiner, 781080). Assay ready plates were generated with duplicate 11-point compound dilution series that consisted of 2-fold stepwise dilutions (0.4% DMSO final). To each well, was added 20 μL of 2 μg/mL of APOL1 G0, G1, or G2 recombinant protein in modified HMI-9 media using a MultiDrop Combi (final APOL1 protein concentration=[…]). Trypanosomes were counted using a hemacytometer and diluted in modified HMI-9 media to a concentration of 1.25×10^4 cell/mL. […]

[4] = tested on: Trypanosoma brucei Lister 427 VSG221 with APOL1 G0 recombinant protein; assay: APOL1 G0 trypanosome cell rescue assay (Example B5); details: geometric mean of at least 2 assay runs, † = single assay run
Description: as §1, §2, §3, §4

[5] = tested on: Trypanosoma brucei Lister 427 VSG221 with APOL1 G2 recombinant protein; assay: APOL1 G2 trypanosome cell rescue assay (Example B5); details: geometric mean of at least 2 assay runs, † = single assay run
Description: as §1, §2, §3, §4

APOL1 G2 = target: T1, APOL1 G2 (Homo sapiens, UniProt O14791, DEL388-389); assay: APOL1-mediated calcium transport (calcium influx) assay, HEK T-REx/GCaMP6f/APOL1 G2 K6.3 cells, FLIPR TETRA; details: prevention of calcium influx; geometric mean of at least 2 assay runs; † = average of a technical replicate from a single assay run
T1 construct: expressed in transfected cells; host or cells: HEK293 T-REx clonal line stably expressing GCaMP6f (HEK T-REx/GCaMP6f/APOL1 G2 K6.3), doxycycline induced
T1 sequence (O14791 with tags, fused parts or gaps DEL388-389): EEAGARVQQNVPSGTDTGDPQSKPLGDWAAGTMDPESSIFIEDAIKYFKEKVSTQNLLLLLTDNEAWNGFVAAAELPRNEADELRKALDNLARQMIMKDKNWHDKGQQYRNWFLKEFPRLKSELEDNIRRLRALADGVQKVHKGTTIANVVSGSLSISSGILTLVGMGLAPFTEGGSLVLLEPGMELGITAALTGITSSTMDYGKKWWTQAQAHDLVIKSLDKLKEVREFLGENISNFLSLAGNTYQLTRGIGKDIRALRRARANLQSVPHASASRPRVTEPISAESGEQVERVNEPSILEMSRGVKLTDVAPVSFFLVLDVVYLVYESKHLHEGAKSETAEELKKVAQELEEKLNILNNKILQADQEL
Method in brief: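 A HEK293 T-REx clone stably expressing GCaMP6f had APOL1 G2 induced with doxycycline (20 ng/mL solution added) for 6 h. Cells were then washed into Ca2+-free Tyrode's buffer (pH 7.4) and preincubated with compounds (duplicate 8-point) for 10 min at room temperature. Ca2+ injection to 5 mM final produced FLIPR GCaMP fluorescence, giving AC50 for influx inhibition (geometric mean, ≥2 runs).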

[6] = Homo sapiens, HEK293, HEK293 overexpressing APOL1 G2
[7] = Homo sapiens, HEK293, HEK293 clonal line overexpressing APOL1 G1
[8] = Trypanosoma brucei, 20 h, read-out: APOL1 G1 Trypanosome Rescue EC50, Trypanosoma brucei Lister 427 VSG221 with APOL1 G1 recombinant protein, 20 hours, CellTiter-Glo
[9] = Trypanosoma brucei, 20 h, read-out: APOL1 G0 Trypanosome Rescue EC50, Trypanosoma brucei Lister 427 VSG221 with APOL1 G0 recombinant protein, 20 hours, CellTiter-Glo
[10] = Trypanosoma brucei, 20 h, read-out: APOL1 G2 Trypanosome Rescue EC50, Trypanosoma brucei Lister 427 VSG221 with APOL1 G2 recombinant protein, 20 hours, CellTiter-Glo
[11] = HEK293 clonal line overexpressing APOL1 G1

SMILES | pEC50 [1, 6] | pEC50 [2, 7] | pEC50 [3, 8] | pEC50 [4, 9] | pEC50 [5, 10] | AC50 (APOL1 G2) [nM] | further results
O=C1Nc2ccc(Cl)cc2C12CCN(CCOc1cnc3c(N4CC(O)C4)ncnc3c1)CC2 [Compound 366, 5-chloro-1′-(2-{[4-(3-hydroxyazetidin-1-yl)pyrido[3,2-d]pyrimidin-7-yl]oxy}ethyl)-1,2-dihydrospiro[indole-3,4′-piperidin]-2-one] | 7.10 | 6.87 | 7.06 | 7.18 | 7.49 | – | –
CC1(O)CN(c2ncnc3cc(OCCN4CCC5(CC4)C(=O)Nc4ccc(Cl)cc45)cnc23)C1 [Compound 364, 5-chloro-1′-(2-{[4-(3-hydroxy-3-methylazetidin-1-yl)pyrido[3,2-d]pyrimidin-7-yl]oxy}ethyl)-1,2-dihydrospiro[indole-3,4′-piperidin]-2-one] | 6.95 | 6.62 | 6.69 | 6.81 | 7.03 | – | –
CC(=O)c1ncc(OCCN2CCC3(CC2)C(=O)Nc2ccc(C#N)cc23)cc1C(F)(F)F [Compound 298, 1′-(2-{[6-acetyl-5-(trifluoromethyl)pyridin-3-yl]oxy}ethyl)-2-oxo-1,2-dihydrospiro[indole-3,4′-piperidine]-5-carbonitrile] | 7.09 | 6.66 | 6.81 | 6.92 | 7.25 | – | –
CN1C(=O)C2(CCN(CCOc3ccc(C4(S(C)(=O)=O)CC(O)C4)cc3)CC2)c2cc(C(F)F)ccc21 (single isomer, unassigned) [Compound 279, 5-(difluoromethyl)-1-methyl-1′-(2-{4-[(trans) or (cis)-3-hydroxy-1-methanesulfonylcyclobutyl]phenoxy}ethyl)-1,2-dihydrospiro[indole-3,4′-piperidin]-2-one] | – | – | – | – | – | – | pEC50 ([1]; HEK293 overexpressing APOL1 G2): 7.22; pEC50 [2, 11]: 6.63; pEC50 ([3]; read-out: APOL1 G1 Trypanosome Rescue EC50, Trypanosoma brucei Lister 427 VSG221 with APOL1 G1 recombinant protein, 20 hours, CellTiter-Glo): 6.55; pEC50 ([4]; read-out: APOL1 G0 Trypanosome Rescue EC50, Trypanosoma brucei Lister 427 VSG221 with APOL1 G0 recombinant protein, 20 hours, CellTiter-Glo): 6.67; pEC50 ([5]; read-out: APOL1 G2 Trypanosome Rescue EC50, Trypanosoma brucei Lister 427 VSG221 with APOL1 G2 recombinant protein, 20 hours, CellTiter-Glo): 7.08
CC(COc1ccc2c(c1)CCC(=O)N2C)N1CCC2(CC1)C(=O)Nc1ccc(Cl)cc12 (single isomer, unassigned) [Compound 201, chloro-1′-[(2R) or (2S)-1-[(1-methyl-2-oxo-1,2,3,4-tetrahydroquinolin-6-yl)oxy]propan-2-yl]-1,2-dihydrospiro[indole-3,4′-piperidin]-2-one] | – | – | – | – | – | 909 | pEC50 ([1]; HEK293 overexpressing APOL1 G2): 6.22; pEC50 [2, 11]: 5.31
CN(C)c1ncc(OCCN2CCC3(CC2)C(=O)Nc2ccc(Cl)cc23)cn1 [Compound 303, 5-chloro-1′-(2-{[2-(dimethylamino)pyrimidin-5-yl]oxy}ethyl)-1,2-dihydrospiro[indole-3,4′-piperidin]-2-one] | 6.81 | 6.45 | – | – | – | 822 | –
NC(=O)c1ccc(OCCN2CCC3(CC2)C(=O)Nc2ccc(Cl)cc23)cn1 [Compound 47, 5-(2-{5-chloro-2-oxo-1,2-dihydrospiro[indole-3,4′-piperidin]-1′-yl}ethoxy)pyridine-2-carboxamide] | 6.83 | 6.40 | – | – | – | 641 | –
CC1(O)CC(N2C(=O)CCc3cc(OCCN4CCC5(CC4)C(=O)Nc4ccc(Cl)cc45)cnc32)C1 (centres unmarked) [Compound 315, 5-chloro-1′-(2-{[8-(3-hydroxy-3-methylcyclobutyl)-7-oxo-5,6,7,8-tetrahydro-1,8-naphthyridin-3-yl]oxy}ethyl)-1,2-dihydrospiro[indole-3,4′-piperidin]-2-one] | 7.59 | 7.07 | – | – | – | 330 | –
CS(=O)(=O)c1ccc(OCCN2CCC3(CC2)C(=O)Nc2ccccc23)cc1 [Compound 73, 1′-[2-(4-methanesulfonylphenoxy)ethyl]-1,2-dihydrospiro[indole-3,4′-piperidin]-2-one] | 6.28 | 5.45 | – | – | – | 161 | –
[2H]C([2H])([2H])N1C(=O)C2(CCN(CCOc3ccc(C4CCN(S(C)(=O)=O)CC4)cc3)CC2)c2cc(Cl)ccc21 [Compound 412, 5-chloro-1′-{2-[4-(1-methanesulfonylpiperidin-4-yl)phenoxy]ethyl}-1-(^2H3)methyl-1,2-dihydrospiro[indole-3,4′-piperidin]-2-one] | 7.34 | 7.15 | – | – | – | 2900 | –

— patent US12344610B2, “APOL1 inhibitors and methods of use” (Maze Therapeutics, Inc., priority 2022, dated 2025)
